pIC50: −log10 of the molar value.
Target: T1, PD-1/PD-L1 protein/protein interaction (Homo sapiens, UniProt Q9NZQ7)
T1 construct: Recombinant human PD-L1 protein (19-238) with a His-tag at the C-terminus; purchased AcroBiosystems PD1-H5229 (PD-L1); PD1-H5257 (PD-1)
Assay: PD-1/PD-L1 homogenous time-resolved fluorescence (HTRF) binding assay
Settings: recombinant human PD-L1 (19-238)-His 10 nM, human PD-1 (25-167)-Fc 3 nM, 25° C., PBS pH 7.4
Experimental: Resolved Fluorescence (HTRF) Binding Assay
The assays were conducted in a standard black 384-well polystyrene plate with a final volume of 20 μL. Inhibitors were first serially diluted in DMSO and then added to the plate wells before the addition of other reaction components. The final concentration of DMSO in the assay was 1%. The assays were carried out at 25° C. in the PBS buffer (pH 7.4) with 0.05% Tween-20 and 0.1% BSA. Recombinant human PD-L1 protein (19-238) with a His-tag at the C-terminus was purchased from AcroBiosy stems (PD1-H5229). Recombinant human PD-1 protein (25-167) with Fc tag at the C-terminus was also purchased from AcroBiosystems (PD1-H5257). PD-L1 and PD-1 proteins were diluted in the assay buffer and 10 μL was added to the plate well. Plates were centrifuged and proteins were preincubated with inhibitors for 40 min. The incubation was followed by the addition of 10 μL of HTRF detection buffer supplemented with Europium cryptate-labeled anti-human IgG (PerkinElmer-AD0212) specific for Fc and anti-His antibody conjugated to SureLight®—Allophycocyanin (APC, PerkinElmer-AD0059H). After centrifugation, the plate was incubated at 25° C. for 60 min. Before reading on a PHERAstar FS plate reader (665 nm/620 nm ratio). Final concentrations in the assay were—3 nM PD1, 10 nM PD-L1, 1 nM europium anti-human IgG and 20 nM anti-His-Allophycocyanin. IC50 determination was performed by fitting the curve of percent control activity versus the log of the inhibitor concentration using the GraphPad Prism 5.0 software.
Data obtained for the Example compounds using the PD-1/PD-L1 homogenous time-resolved fluorescence (HTRF) binding assay described in Example A is provided in Table 2.

T1 sequence (Q9NZQ7 19-238): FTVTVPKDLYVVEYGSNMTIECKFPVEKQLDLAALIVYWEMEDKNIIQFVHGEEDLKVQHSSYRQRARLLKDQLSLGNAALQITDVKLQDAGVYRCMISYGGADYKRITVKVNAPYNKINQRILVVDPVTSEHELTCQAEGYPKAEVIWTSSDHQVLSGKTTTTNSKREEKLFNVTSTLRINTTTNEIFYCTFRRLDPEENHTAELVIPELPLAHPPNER

pIC50	Compound
7.00 to 7.60	CN1CCc2c(-c3cccc4c3CCN4C(=O)c3nc4c(s3)CN(CC(=O)O)CC4)cccc21 [Example 1, 2-(2-(1′-methyl-[4,4′-biindoline]-1-carbonyl)-6,7-dihydrothiazolo[5,4-c]pyridin-5(4H)-yl)acetic acid]
≥ 7.60	CC(=O)N1CCc2c(-c3cccc4c3CCN4C(=O)c3nc4c(s3)CN(CC(=O)O)CC4)cccc21 [Example 2, 2-(2-(1′-acetyl-[4,4′-biindoline]-1-carbonyl)-6,7-dihydrothiazolo[5,4-c]pyridin-5(4H)-yl)acetic acid]
≥ 7.60	COc1cccc(-c2cccc3c2CCN3C(=O)c2nc3c(s2)CN(CC(=O)O)CC3)c1 [Example 3, 2-(2-(4-(3-methoxyphenyl)indoline-1-carbonyl)-6,7-dihydrothiazolo[5,4-c]pyridin-5(4H)-yl)acetic acid]
≥ 7.60	O=C(O)CN1CCc2nc(C(=O)N3CCc4c(-c5ccccc5)cccc43)sc2C1 [Example 4, 2-(2-(4-phenylindoline-1-carbonyl)-6,7-dihydrothiazolo[5,4-c]pyridin-5(4H)-yl)acetic acid]
7.00 to 7.60	Cc1ccccc1-c1cccc2c1CCN2C(=O)c1nc2c(s1)CN(CC(=O)O)CC2 [Example 5, 2-(2-(4-(o-tolyl)indoline-1-carbonyl)-6,7-dihydrothiazolo[5,4-c]pyridin-5(4H)-yl)acetic acid]
≥ 7.60	O=C(O)CN1CCc2nc(C(=O)N3CCc4c(-c5cccc6c5CCN6CCCN5CCOCC5)cccc43)sc2C1 [Example 6, 2-(2-(1′-(3-morpholinopropyl)-[4,4′-biindoline]-1-carbonyl)-6,7-dihydrothiazolo[5,4-c]pyridin-5(4H)-yl)acetic acid]
≥ 7.60	O=C(O)CN1CCc2nc(C(=O)N3CCc4c(-c5cccc(OCCCN6CCC(O)C6)c5)cccc43)sc2C1 (stereo not drawn) [Example 7, 2-(2-(4-(3-(3-(3-hydroxypyrrolidin-1-yl)propoxy)phenyl)indoline-1-carbonyl)-6,7-dihydrothiazolo[5,4-c]pyridin-5(4H)-yl)acetic acid]
≥ 7.60	O=C(O)CN1CCc2nc(C(=O)N3CCc4c(-c5cccc(OCCN6CCC(O)C6)c5)cccc43)sc2C1 (stereo not drawn) [Example 8, 2-(2-(4-(3-(2-(3-hydroxypyrrolidin-1-yl)ethoxy)phenyl)indoline-1-carbonyl)-6,7-dihydrothiazolo[5,4-c]pyridin-5(4H)-yl)acetic acid]
≥ 7.60	O=C(O)CN1CCc2nc(C(=O)N3CCc4c(-c5cccc(OCCCN6CCC(O)C6)c5)cccc43)sc2C1 (stereo not drawn) [Example 10, 2-(2-(4-(3-(3-(3-hydroxypyrrolidin-1-yl)propoxy)phenyl)indoline-1-carbonyl)-6,7-dihydrothiazolo[5,4-c]pyridin-5(4H)-yl)acetic acid]
≥ 7.60	O=C(O)CN1CCc2nc(C(=O)N3CCc4c(-c5cccc6c5CCN6CCCN5CCC(O)C5)cccc43)sc2C1 (stereo not drawn) [Example 11, 2-(2-(1′-(3-(3-hydroxypyrrolidin-1-yl)propyl)-[4,4′-biindoline]-1-carbonyl)-6,7-dihydrothiazolo[5,4-c]pyridin-5(4H)-yl)acetic acid]
≥ 7.60	O=C(O)CN1CCc2nc(C(=O)N3CCc4c(-c5cccc6c5CCN6CCN5CCC(O)C5)cccc43)sc2C1 (stereo not drawn) [Example 12, 2-(2-(1′-(2-(3-hydroxypyrrolidin-1-yl)ethyl)-[4,4′-biindoline]-1-carbonyl)-6,7-dihydrothiazolo[5,4-c]pyridin-5(4H)-yl)acetic acid]
≥ 7.60	Cc1c(NC(=O)CCN2CCC(O)C2)cccc1-c1cccc2c1CCN2C(=O)c1nc2c(s1)CN(CC(=O)O)CC2 (stereo not drawn) [Example 13, 2-(2-(4-(3-(3-(3-hydroxypyrrolidin-1-yl)propanamido)-2-methylphenyl)indoline-1-carbonyl)-6,7-dihydrothiazolo[5,4-c]pyridin-5(4H)-yl)acetic acid]
≥ 7.60	O=C(O)CN1CCc2nc(C(=O)N3CCc4c(-c5cccc(NC(=O)CCN6CCC(O)C6)c5)cccc43)sc2C1 (stereo not drawn) [Example 14, 2-(2-(4-(3-(3-(3-hydroxypyrrolidin-1-yl)propanamido)phenyl)indoline-1-carbonyl)-6,7-dihydrothiazolo[5,4-c]pyridin-5(4H)-yl)acetic acid]
≥ 7.60	O=C(O)CN1CCc2nc(C(=O)N3CCc4c(-c5cccc(OCCCN6CCOCC6)c5)cccc43)sc2C1 [Example 15, 2-(2-(4-(3-(3-morpholinopropoxy)phenyl)indoline-1-carbonyl)-6,7-dihydrothiazolo[5,4-c]pyridin-5(4H)-yl)acetic acid]
≥ 7.60	O=C(O)CN1CCc2nc(C(=O)N3CCc4c(-c5cccc(CCCCN6CCOCC6)c5)cccc43)sc2C1 [Example 16, 2-(2-(4-(3-(4-morpholinobutyl)phenyl)indoline-1-carbonyl)-6,7-dihydrothiazolo[5,4-c]pyridin-5(4H)-yl)acetic acid]
≥ 7.60	O=C(O)CN1CCc2nc(C(=O)N3CCc4c(-c5cccc(CCCN6CCOCC6)c5)cccc43)sc2C1 [Example 17, 2-(2-(4-(3-(3-morpholinopropyl)phenyl)indoline-1-carbonyl)-6,7-dihydrothiazolo[5,4-c]pyridin-5(4H)-yl)acetic acid]
≥ 7.60	O=C(O)CN1CCc2nc(C(=O)N3CCc4c(-c5cccc(/C=C/CN6CCOCC6)c5)cccc43)sc2C1 [Example 18, (E)-2-(2-(4-(3-(3-morpholinoprop-1-en-1-yl)phenyl)indoline-1-carbonyl)-6,7-dihydrothiazolo[5,4-c]pyridin-5(4H)-yl)acetic acid]
≥ 7.60	O=C(O)CN1CCc2nc(C(=O)N3CCc4c(-c5cccc(CCN6CCOCC6)c5)cccc43)sc2C1 [Example 19, 2-(2-(4-(3-(2-morpholinoethyl)phenyl)indoline-1-carbonyl)-6,7-dihydrothiazolo[5,4-c]pyridin-5(4H)-yl)acetic acid]
≥ 7.60	Cc1c(NC(=O)CCN2CCC(O)C2)cccc1-c1cccc2c1CCN2C(=O)c1nc2c(n1C)CN(CC(=O)O)CC2 (stereo not drawn) [Example 20, 2-(2-(4-(3-(3-(3-hydroxypyrrolidin-1-yl)propanamido)-2-methylphenyl)indoline-1-carbonyl)-3-methyl-3,4,6,7-tetrahydro-5H-imidazo[4,5-c]pyridin-5-yl)acetic acid]
≥ 7.60	Cc1c(OCCCN2CCOCC2)cccc1-c1cccc2c1CCN2C(=O)c1nc2c(n1C)CN(CC(=O)O)CC2 [Example 21, 2-(3-methyl-2-(4-(2-methyl-3-(3-morpholinopropoxy)phenyl)indoline-1-carbonyl)-3,4,6,7-tetrahydro-5H-imidazo[4,5-c]pyridin-5-yl)acetic acid]
≥ 7.60	Cc1c(NC(=O)CCN2CCC(O)C2)cccc1-c1cccc2c1CCN2C(=O)c1nc2c(o1)CN(CC(=O)O)CC2 (stereo not drawn) [Example 22, 2-(2-(4-(3-(3-(3-hydroxypyrrolidin-1-yl)propanamido)-2-methylphenyl)indoline-1-carbonyl)-6,7-dihydrooxazolo[5,4-c]pyridin-5(4H)-yl)acetic acid]
≥ 7.60	Cc1c(OCCCN2CCOCC2)cccc1-c1cccc2c1CCN2C(=O)c1nc2c(o1)CN(CC(=O)O)CC2 [Example 23, 2-(2-(4-(2-methyl-3-(3-morpholinopropoxy)phenyl)indoline-1-carbonyl)-6,7-dihydrooxazolo[5,4-c]pyridin-5(4H)-yl)acetic acid]
7.00 to 7.60	O=C(O)CN1CCc2nc(C(=O)N3CCc4c(-c5cccc6c5CCN6C(=O)c5nccs5)cccc43)sc2C1 [Example 24, 2-(2-(1′-(thiazole-2-carbonyl)-[4,4′-biindoline]-1-carbonyl)-6,7-dihydrothiazolo[5,4-c]pyridin-5(4H)-yl)acetic acid]
7.00 to 7.60	O=C(O)CN1CCc2nc(C(=O)N3CCc4c(-c5cccc6c5CCN6C(=O)c5ccccn5)cccc43)sc2C1 [Example 25, 2-(2-(1′-picolinoyl-[4,4′-biindoline]-1-carbonyl)-6,7-dihydrothiazolo[5,4-c]pyridin-5(4H)-yl)acetic acid]
≥ 7.60	Cc1c(NC(=O)c2nccs2)cccc1-c1cccc2c1CCN2C(=O)c1nc2c(s1)CN(CC(=O)O)CC2 [Example 26, 2-(2-(4-(2-methyl-3-(thiazole-2-carboxamido)phenyl)indoline-1-carbonyl)-6,7-dihydrothiazolo[5,4-c]pyridin-5(4H)-yl)acetic acid]
≥ 7.60	Cc1c(NC(=O)c2ccccn2)cccc1-c1cccc2c1CCN2C(=O)c1nc2c(s1)CN(CC(=O)O)CC2 [Example 27, 2-(2-(4-(2-methyl-3-(picolinamido)phenyl)indoline-1-carbonyl)-6,7-dihydrothiazolo[5,4-c]pyridin-5(4H)-yl)acetic acid]

Compound	pIC50
O=C(O)CN1CCc2nc(C(=O)N3CCc4c(-c5cccc(OCCCCN6CCC(O)C6)c5)cccc43)sc2C1 (stereo not drawn) [Example 9, 2-(2-(4-(3-(4-(3-hydroxypyrrolidin-1-yl)butoxy)phenyl)indoline-1-carbonyl)-6,7-dihydrothiazolo[5,4-c]pyridin-5(4H)-yl)acetic acid]	≥ 7.60

— US20220119411A1, “IMMUNOMODULATORS, COMPOSITIONS AND METHODS THEREOF” (BETTA PHARMACEUTICALS CO., LTD, priority 2018, published 2022)
